{"source": "ChEMBL document CHEMBL1137334", "about": "(J Med Chem, 2006)", "key": {"[1]": {"tested_on": "A549", "experiment": "Inhibition of A549 cell migration by microdroplet migration assay", "type": "functional, cell-based", "details": "Homo sapiens"}, "[2]": {"molecular_target": "Vascular endothelial growth factor receptor 2 (Homo sapiens, UniProt P35968)", "sequence (P35968 whole entry)": "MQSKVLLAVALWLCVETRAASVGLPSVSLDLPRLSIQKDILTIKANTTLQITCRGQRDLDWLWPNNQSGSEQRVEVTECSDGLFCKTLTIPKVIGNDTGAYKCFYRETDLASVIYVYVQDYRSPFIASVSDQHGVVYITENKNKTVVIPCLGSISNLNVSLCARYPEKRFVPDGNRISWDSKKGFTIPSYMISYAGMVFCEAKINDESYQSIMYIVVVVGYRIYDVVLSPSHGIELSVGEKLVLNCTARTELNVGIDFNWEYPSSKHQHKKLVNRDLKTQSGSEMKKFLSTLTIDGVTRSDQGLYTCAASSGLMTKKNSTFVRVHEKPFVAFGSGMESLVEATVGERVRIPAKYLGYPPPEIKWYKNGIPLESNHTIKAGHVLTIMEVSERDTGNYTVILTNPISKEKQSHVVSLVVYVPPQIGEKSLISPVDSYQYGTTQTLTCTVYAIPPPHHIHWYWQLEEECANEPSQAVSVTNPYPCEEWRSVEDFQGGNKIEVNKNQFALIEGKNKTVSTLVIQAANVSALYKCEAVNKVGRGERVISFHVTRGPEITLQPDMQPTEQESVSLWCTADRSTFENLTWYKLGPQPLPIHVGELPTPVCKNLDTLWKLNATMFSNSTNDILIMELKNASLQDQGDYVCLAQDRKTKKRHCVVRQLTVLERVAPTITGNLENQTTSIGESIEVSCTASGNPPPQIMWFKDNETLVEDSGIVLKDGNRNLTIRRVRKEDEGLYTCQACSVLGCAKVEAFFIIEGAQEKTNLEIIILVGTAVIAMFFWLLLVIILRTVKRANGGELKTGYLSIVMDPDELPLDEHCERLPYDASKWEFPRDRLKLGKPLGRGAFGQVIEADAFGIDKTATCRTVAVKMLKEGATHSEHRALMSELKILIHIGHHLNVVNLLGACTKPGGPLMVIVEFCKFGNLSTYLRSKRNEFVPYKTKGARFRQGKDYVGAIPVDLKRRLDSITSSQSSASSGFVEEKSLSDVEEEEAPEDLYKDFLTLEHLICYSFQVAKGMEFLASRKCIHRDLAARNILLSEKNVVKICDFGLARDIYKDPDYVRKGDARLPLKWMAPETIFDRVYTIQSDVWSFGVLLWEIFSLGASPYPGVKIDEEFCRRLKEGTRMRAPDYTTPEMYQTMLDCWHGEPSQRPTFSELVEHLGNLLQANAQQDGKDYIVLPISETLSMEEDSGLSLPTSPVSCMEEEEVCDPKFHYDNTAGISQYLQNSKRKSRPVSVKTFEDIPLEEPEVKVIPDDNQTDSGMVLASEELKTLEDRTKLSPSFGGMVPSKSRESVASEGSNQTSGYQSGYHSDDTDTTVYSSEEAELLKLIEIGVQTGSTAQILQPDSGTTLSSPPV", "experiment": "Inhibition of KDR"}, "[3]": {"molecular_target": "Proto-oncogene tyrosine-protein kinase Src (Homo sapiens, UniProt P12931)", "sequence (P12931 2-536 limits assumed)": "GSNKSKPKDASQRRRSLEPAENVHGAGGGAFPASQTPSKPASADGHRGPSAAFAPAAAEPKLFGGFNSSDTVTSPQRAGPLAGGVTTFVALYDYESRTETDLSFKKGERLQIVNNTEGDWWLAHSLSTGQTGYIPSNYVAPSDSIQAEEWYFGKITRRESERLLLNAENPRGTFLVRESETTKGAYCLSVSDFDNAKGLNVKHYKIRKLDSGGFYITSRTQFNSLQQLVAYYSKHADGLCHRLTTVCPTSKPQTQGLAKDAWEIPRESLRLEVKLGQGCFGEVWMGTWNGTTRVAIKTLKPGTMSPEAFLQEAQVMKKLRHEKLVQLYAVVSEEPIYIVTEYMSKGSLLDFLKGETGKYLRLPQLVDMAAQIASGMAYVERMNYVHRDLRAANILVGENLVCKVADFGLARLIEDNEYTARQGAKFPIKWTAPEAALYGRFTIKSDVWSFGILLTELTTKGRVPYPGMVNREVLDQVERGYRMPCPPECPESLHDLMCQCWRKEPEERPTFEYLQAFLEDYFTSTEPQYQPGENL", "description": "Inhibition of human c-Src in NIH3T3 cells"}, "[4]": {"experiment": "Percent of unbound ligand in rat plasma", "type": "ADME, organism-based"}, "[5]": {"experiment": "Dissociation constant, pKa of the basic side chain of compound", "type": "physicochemical"}, "[6]": {"experiment": "Lipophilicity, log D at pH 7.4", "type": "physicochemical", "details": "buffer"}, "[7]": {"experiment": "AUC (0-24h) in mouse at 20 mg/kg, po", "type": "ADME, organism-based", "parameters": "time < 24 hr, dose 20 mg/kg, route oral", "details": "plasma"}, "[8]": {"experiment": "Aqueous solubility at pH 7.4", "type": "physicochemical"}, "[9]": {"experiment": "Bioavailability in female rat at 20 mg/kg, po and 2 mg/kg, iv", "type": "ADME, organism-based", "details": "in vivo"}, "[10]": {"experiment": "Volume of distribution in female rat at 20 mg/kg, po and 2 mg/kg, iv", "type": "ADME, organism-based", "details": "in vivo, read-out: Vdss"}, "[11]": {"experiment": "Clearance in female rat at 20 mg/kg, po and 2 mg/kg, iv", "type": "ADME, organism-based", "details": "in vivo"}, "[12]": {"species": "Canis familiaris", "experiment": "(§1) Volume of distribution in male dog", "type": "ADME, organism-based, Canis lupus familiaris", "details": "in vivo"}, "[13]": {"species": "Canis familiaris", "experiment": "(§2) Half life in male dog", "type": "ADME, organism-based, Canis lupus familiaris", "details": "in vivo"}, "[14]": {"experiment": "Bioavailability in male dog", "type": "ADME, organism-based, Canis lupus familiaris", "details": "in vivo"}, "[15]": {"experiment": "Half life in rat at 20 mg/kg, po and 2 mg/kg, iv", "type": "ADME, organism-based", "details": "in vivo"}, "[16]": {"experiment": "Percent of unbound ligand in dog plasma", "type": "ADME, organism-based, Canis lupus familiaris"}, "[17]": {"experiment": "Clearance in rat at 20 mg/kg, po and 2 mg/kg, iv", "type": "ADME, organism-based", "details": "in vivo"}, "[18]": {"experiment": "Permeability from apical to basolateral side of NIH 3T3 cell", "type": "ADME, cell-based, NIH3T3", "details": "mouse, not told; read-out: permeability"}, "[19]": {"molecular_target": "Protein kinase C alpha type (Homo sapiens, UniProt P17252)", "experiment": "Inhibition of PKCalpha"}, "[20]": {"experiment": "Volume of distribution in rat at 20 mg/kg, po and 2 mg/kg, iv", "type": "ADME, organism-based", "details": "in vivo, read-out: Vdss"}, "[21]": {"molecular_target": "Vascular endothelial growth factor receptor 1 (Homo sapiens, UniProt P17948)", "experiment": "Inhibition of recombinant FLT1 by ELISA"}, "[22]": {"molecular_target": "Fibroblast growth factor receptor 1 (Homo sapiens, UniProt P11362)", "experiment": "Inhibition of recombinant FGFR1 by ELISA"}, "[23]": {"experiment": "as §1", "type": "ADME, organism-based, Canis lupus familiaris", "details": "male, in vivo, read-out: Vdss"}, "[24]": {"molecular_target": "Tyrosine-protein kinase Yes (Homo sapiens, UniProt P07947)", "experiment": "Inhibition of recombinant C-YES by ELISA"}, "[25]": {"experiment": "Clearance in male dog", "type": "ADME, organism-based, Canis lupus familiaris", "details": "in vivo"}, "[26]": {"molecular_target": "c-Jun N-terminal kinase, JNK (Homo sapiens, UniProt P45983+P53779+P45984)", "experiment": "Inhibition of JNK", "type": "protein assay"}, "[27]": {"molecular_target": "Vascular endothelial growth factor receptor 3 (Homo sapiens, UniProt P35916)", "sequence (P35916 whole entry)": "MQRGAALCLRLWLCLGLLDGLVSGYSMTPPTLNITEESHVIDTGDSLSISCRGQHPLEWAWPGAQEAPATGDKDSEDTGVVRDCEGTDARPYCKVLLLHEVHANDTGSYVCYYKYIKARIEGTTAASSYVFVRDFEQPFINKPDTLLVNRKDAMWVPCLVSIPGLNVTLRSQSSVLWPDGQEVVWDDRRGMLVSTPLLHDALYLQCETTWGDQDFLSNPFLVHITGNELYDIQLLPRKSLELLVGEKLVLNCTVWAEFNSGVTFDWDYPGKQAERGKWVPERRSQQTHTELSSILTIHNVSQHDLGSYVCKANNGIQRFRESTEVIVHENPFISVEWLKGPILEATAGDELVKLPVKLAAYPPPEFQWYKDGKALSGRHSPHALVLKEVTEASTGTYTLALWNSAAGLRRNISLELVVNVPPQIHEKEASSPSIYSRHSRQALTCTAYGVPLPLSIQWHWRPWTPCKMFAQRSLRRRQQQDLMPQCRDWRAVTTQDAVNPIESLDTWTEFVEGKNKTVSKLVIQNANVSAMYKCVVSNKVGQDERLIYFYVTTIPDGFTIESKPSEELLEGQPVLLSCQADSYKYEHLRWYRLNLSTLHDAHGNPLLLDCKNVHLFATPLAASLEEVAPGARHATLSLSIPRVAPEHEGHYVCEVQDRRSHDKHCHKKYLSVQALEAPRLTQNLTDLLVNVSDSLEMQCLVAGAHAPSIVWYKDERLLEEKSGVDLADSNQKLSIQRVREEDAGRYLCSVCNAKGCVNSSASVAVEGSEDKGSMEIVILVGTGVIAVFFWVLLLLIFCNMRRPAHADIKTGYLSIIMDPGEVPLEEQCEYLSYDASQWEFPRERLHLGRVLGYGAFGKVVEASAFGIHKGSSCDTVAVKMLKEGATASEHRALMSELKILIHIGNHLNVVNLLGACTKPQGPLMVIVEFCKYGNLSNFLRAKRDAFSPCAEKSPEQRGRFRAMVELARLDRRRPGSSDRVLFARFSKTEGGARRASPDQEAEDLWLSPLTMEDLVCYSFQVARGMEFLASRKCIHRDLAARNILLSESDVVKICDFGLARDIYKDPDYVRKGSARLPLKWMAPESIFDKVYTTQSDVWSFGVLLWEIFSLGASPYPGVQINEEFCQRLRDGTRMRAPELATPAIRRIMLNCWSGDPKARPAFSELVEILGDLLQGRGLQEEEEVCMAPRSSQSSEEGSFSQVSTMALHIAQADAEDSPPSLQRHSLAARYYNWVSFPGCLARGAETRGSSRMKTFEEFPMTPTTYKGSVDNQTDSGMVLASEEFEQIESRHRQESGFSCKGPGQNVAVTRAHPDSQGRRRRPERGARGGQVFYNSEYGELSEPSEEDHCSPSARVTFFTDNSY", "experiment": "Inhibition of FLT4 by ELISA"}, "[28]": {"molecular_target": "3-phosphoinositide-dependent protein kinase 1 (Homo sapiens, UniProt O15530)", "sequence (O15530 whole entry)": "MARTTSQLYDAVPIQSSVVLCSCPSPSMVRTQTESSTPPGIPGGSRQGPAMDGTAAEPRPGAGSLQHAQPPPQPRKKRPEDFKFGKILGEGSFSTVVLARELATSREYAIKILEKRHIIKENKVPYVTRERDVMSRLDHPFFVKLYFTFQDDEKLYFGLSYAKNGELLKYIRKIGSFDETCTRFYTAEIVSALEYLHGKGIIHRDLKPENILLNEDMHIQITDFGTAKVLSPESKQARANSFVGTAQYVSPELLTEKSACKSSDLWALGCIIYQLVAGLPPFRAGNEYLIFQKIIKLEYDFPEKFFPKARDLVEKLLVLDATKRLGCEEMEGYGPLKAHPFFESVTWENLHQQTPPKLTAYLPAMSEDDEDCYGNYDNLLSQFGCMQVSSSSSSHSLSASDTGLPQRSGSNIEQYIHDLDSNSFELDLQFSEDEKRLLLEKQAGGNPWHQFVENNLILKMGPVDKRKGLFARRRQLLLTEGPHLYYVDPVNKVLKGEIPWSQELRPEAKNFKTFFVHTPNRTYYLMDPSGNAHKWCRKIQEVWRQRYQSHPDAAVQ", "experiment": "Inhibition of PDK"}, "[29]": {"molecular_target": "Tyrosine-protein kinase CSK (Homo sapiens, UniProt P41240)", "experiment": "Inhibition of recombinant CSK by ELISA"}, "[30]": {"molecular_target": "Glycogen synthase kinase-3 beta (Homo sapiens, UniProt P49841)", "sequence (P49841 whole entry)": "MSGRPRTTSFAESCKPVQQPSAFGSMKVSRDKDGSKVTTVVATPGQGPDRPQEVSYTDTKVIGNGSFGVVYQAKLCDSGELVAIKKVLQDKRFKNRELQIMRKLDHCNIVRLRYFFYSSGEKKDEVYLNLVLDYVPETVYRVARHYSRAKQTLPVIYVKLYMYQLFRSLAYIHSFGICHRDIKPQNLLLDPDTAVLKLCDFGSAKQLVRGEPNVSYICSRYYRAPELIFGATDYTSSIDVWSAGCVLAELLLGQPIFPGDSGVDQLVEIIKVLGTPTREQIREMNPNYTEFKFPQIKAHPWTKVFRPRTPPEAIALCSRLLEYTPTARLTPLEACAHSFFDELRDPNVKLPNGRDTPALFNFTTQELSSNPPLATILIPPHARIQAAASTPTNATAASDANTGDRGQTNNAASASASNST", "experiment": "Inhibition of GSK3-beta"}, "[31]": {"experiment": "Bioavailability in rat at 20 mg/kg, po and 2 mg/kg, iv", "type": "ADME, organism-based", "details": "in vivo"}, "[32]": {"experiment": "as §2", "type": "ADME, organism-based, Canis lupus familiaris", "details": "male, in vivo"}, "[33]": {"molecular_target": "Cyclin-dependent kinase 2 (Homo sapiens, UniProt P24941)", "experiment": "Inhibition of CDK2 by SPA"}, "[34]": {"molecular_target": "Aurora kinase B (Homo sapiens, UniProt Q96GD4)", "experiment": "Inhibition of recombinant Aurora B by ELISA"}, "[35]": {"experiment": "Inhibition of PI3K", "parameters": "species or system Homo sapiens"}, "[36]": {"tested_on": "NIH3T3", "experiment": "Antiproliferative activity against NIH 3T3 cells xenografted in athymic rat measured as inhibition of tumor volume at 10 mg/kg/day after 18 days", "type": "functional", "details": "NIH3T3, 432 h"}, "[37]": {"molecular_target": "cAMP-dependent protein kinase (PKA) (Homo sapiens, UniProt P22694+P17612+P22612)", "experiment": "Inhibition of PKA", "type": "protein assay"}, "[38]": {"experiment": "Inhibition of Chk", "parameters": "species or system Homo sapiens"}}, "data": [{"compound": "Clc1ccc2c(c1Nc1ncnc3cc(OCCc4ccncc4)cc(OC4CCOCC4)c13)OCO2", "values": [{"measurement": "IC50", "setting": "[1]", "value": 70, "unit": "nM"}, {"measurement": "IC50", "setting": "[2]", "value": "> 5", "unit": "µM"}, {"measurement": "IC50", "setting": "[3]", "value": 3, "unit": "nM"}, {"measurement": "fraction unbound", "setting": "[4]", "value": 0.017}, {"measurement": "pKa", "setting": "[5]", "value": 6.4}, {"measurement": "logD", "setting": "[6]", "value": "> 3.1"}, {"measurement": "AUC(0-t) at 24 h", "setting": "[7]", "value": 6000, "unit": "ng·h/mL"}, {"measurement": "solubility", "setting": "[8]", "value": 1.5, "unit": "µM"}]}, {"compound": "CN1CCC(COc2cc(OC3CCOCC3)c3c(Nc4c(Cl)ccc5c4OCO5)ncnc3c2)CC1", "values": [{"measurement": "bioavailability", "setting": "[9]", "value": 93, "unit": "%"}, {"measurement": "Vd", "setting": "[10]", "value": 23.4, "unit": "L/kg"}, {"measurement": "clearance", "setting": "[11]", "value": 132, "unit": "mL/min/kg"}, {"measurement": "Vdss", "setting": "[12]", "value": 38, "unit": "L/kg"}, {"measurement": "IC50", "setting": "[1]", "value": 300, "unit": "nM"}, {"measurement": "IC50", "setting": "[2]", "value": 2, "unit": "µM"}, {"measurement": "IC50", "setting": "[3]", "value": 6, "unit": "nM"}, {"measurement": "T1/2", "setting": "[13]", "value": 22, "unit": "h"}, {"measurement": "AUC(0-t) at 24 h", "setting": "[7]", "value": 31000, "unit": "ng·h/mL"}, {"measurement": "bioavailability", "setting": "[14]", "value": 57, "unit": "%"}]}, {"compound": "Clc1ccc2c(c1Nc1ncnc3cc(OCCCN4CCCC4)cc(OC4CCOCC4)c13)OCO2", "values": [{"measurement": "half-life", "setting": "[15]", "value": 210, "unit": "min"}, {"measurement": "fraction unbound", "setting": "[16]", "value": 0.17}, {"measurement": "clearance", "setting": "[17]", "value": 48.3, "unit": "mL/min/kg"}, {"measurement": "Papp A→B", "setting": "[18]", "value": "> 1", "unit": "×10⁻⁶ cm/s"}, {"measurement": "IC50", "setting": "[19]", "value": "> 10", "unit": "µM"}, {"measurement": "Vd", "setting": "[20]", "value": 15, "unit": "L/kg"}, {"measurement": "IC50", "setting": "[21]", "value": "> 33", "unit": "µM"}, {"measurement": "IC50", "setting": "[22]", "value": 37, "unit": "µM"}, {"measurement": "Vd", "setting": "[23]", "value": 38, "unit": "L/kg"}, {"measurement": "IC50", "setting": "[1]", "value": 150, "unit": "nM"}, {"measurement": "IC50", "setting": "[2]", "value": 2.5, "unit": "µM"}, {"measurement": "IC50", "setting": "[24]", "value": 3, "unit": "nM"}, {"measurement": "clearance", "setting": "[25]", "value": 15, "unit": "mL/min/kg"}, {"measurement": "IC50", "setting": "[3]", "value": "< 4", "unit": "nM"}, {"measurement": "IC50", "setting": "[26]", "value": "> 10", "unit": "µM"}, {"measurement": "IC50", "setting": "[27]", "value": "> 10", "unit": "µM"}, {"measurement": "IC50", "setting": "[28]", "value": "> 10", "unit": "µM"}, {"measurement": "fraction unbound", "setting": "[4]", "value": 0.16}, {"measurement": "IC50", "setting": "[29]", "value": 270, "unit": "nM"}, {"measurement": "IC50", "setting": "[30]", "value": "> 10", "unit": "µM"}, {"measurement": "bioavailability", "setting": "[31]", "value": 60, "unit": "%"}, {"measurement": "pKa", "setting": "[5]", "value": 9.5}, {"measurement": "half-life", "setting": "[32]", "value": 1740, "unit": "min"}, {"measurement": "logD", "setting": "[6]", "value": 2.3}, {"measurement": "IC50", "setting": "[33]", "value": "> 10", "unit": "µM"}, {"measurement": "AUC(0-t) at 24 h", "setting": "[7]", "value": 13000, "unit": "ng·h/mL"}, {"measurement": "IC50", "setting": "[34]", "value": 8.9, "unit": "µM"}, {"measurement": "solubility", "setting": "[8]", "value": 1000, "unit": "µM"}, {"measurement": "IC50", "setting": "[35]", "value": "> 10", "unit": "µM"}, {"measurement": "inhibition in vivo at 10 mg/kg/day", "setting": "[36]", "value": 90, "unit": "%"}, {"measurement": "IC50", "setting": "[37]", "value": "> 10", "unit": "µM"}, {"measurement": "bioavailability", "setting": "[14]", "value": 85, "unit": "%"}, {"measurement": "IC50", "setting": "[38]", "value": "> 10", "unit": "µM"}]}, {"compound": "CC(C)Oc1cc(OCCN2CCOCC2)cc2ncnc(Nc3c(Cl)ccc4c3OCO4)c12", "values": [{"measurement": "IC50", "setting": "[1]", "value": 100, "unit": "nM"}, {"measurement": "IC50", "setting": "[2]", "value": 10, "unit": "µM"}, {"measurement": "IC50", "setting": "[3]", "value": 5, "unit": "nM"}, {"measurement": "fraction unbound", "setting": "[4]", "value": 0.025}, {"measurement": "pKa", "setting": "[5]", "value": 6.5}, {"measurement": "logD", "setting": "[6]", "value": 3.7}, {"measurement": "solubility", "setting": "[8]", "value": 2, "unit": "µM"}]}, {"compound": "Clc1ccc2c(c1Nc1ncnc3cc(OCCN4CCCC4)cc(OC4CCOCC4)c13)OCO2", "values": [{"measurement": "IC50", "setting": "[1]", "value": 300, "unit": "nM"}, {"measurement": "IC50", "setting": "[2]", "value": "> 10", "unit": "µM"}, {"measurement": "IC50", "setting": "[3]", "value": 6, "unit": "nM"}, {"measurement": "AUC(0-t) at 24 h", "setting": "[7]", "value": 9000, "unit": "ng·h/mL"}]}]}
